pIC50: −log10 of the molar value.
Key:
[1] = molecular target: T1, human FGFR3 wild type enzyme (cytoplasmic domain) (Homo sapiens, UniProt P22607); assay: FGFR3 wild type mobility shift assay (enzymatic assay); type: biochemical; conditions: 75 μM ATP, 50 minutes at 30° C., Caliper EZ reader II
T1 construct: human FGFR3 wild type enzyme (cytoplasmic domain, from Carna Biosciences); purchased Carna Biosciences
Method: FGFR3 Wild Type Mobility Shift Assay (Enzymatic Assay)
(§1) In a final reaction volume of 25 μL, 0.04 ng/μL human FGFR3 wild type enzyme (cytoplasmic domain, from Carna Biosciences) was incubated with 75 μM ATP, 1 μM FL-peptide 30 substrate and 250 nL of testing compound (1% DMSO final) in assay buffer (100 mM HEPES pH 7.4, 10 mM MgCl2, 0.003% Brij35, 1 mM DTT). After incubation for 50 minutes at 30° C. the reaction was stopped with 10 μL of 0.5M EDTA pH 8.0, and then 25 μL of reaction mixture was transferred to reading plate and measured on Caliper EZ reader II. The substrate-product conversion rate was used as raw data for normalization and concentration-response curve (10 dose points with 4× serial dilution, starting with 10 μM) was plotted using Prism to calculate IC50 (M), pIC50 (−log IC50) and HillSlope value.

[2] = molecular target: T2, human FGFR3 V555M enzyme (cytoplasmic domain carrying V555M mutation) (Homo sapiens, UniProt P22607, V555M); assay: FGFR3 V555M mobility shift assay (enzymatic assay); type: biochemical; conditions: 30 μM ATP, 45 minutes at 30° C., Caliper EZ reader II
T2 construct: human FGFR3 V555M enzyme (cytoplasmic domain carrying V555M mutation, from Carna Biosciences); purchased Carna Biosciences
Method: FGFR3 V555M Mobility Shift Assay (Enzymatic Assay)
as §1, with “FGFR3 V555M” for “FGFR3 wild type”, “(cytoplasmic domain carrying V555M mutation,” for “(cytoplasmic domain,”, “with 30” for “with 75”, “for 45” for “for 50”

[3] = system: NIH/3T3 cells transfected with the same control vector; assay: NIH/3T3 mock cell proliferation assay (counter assay, general toxicity); type: cell-based; conditions: Mus musculus, NIH3T3, 72 h, 72-hr incubation, CellTiter Glo, starting with 30 μM; counter assay for general toxicity; read-out: NIH/3T3 MOCK CTG (IC50)
Method: NIH/3T3 Mock Cell Proliferation Assay
(§2) In day 1, 90 μL of cell suspension (NIH/3T3 cells transfected with the same control vector as in the above two proliferation assays) (total 30,000 cells per well in growth medium (DMEM containing 1% Glutamax, 10% FBS and 1% Pen/Strep)) was seeded in a 96-well plate and then incubated overnight at 37° C. and 5% CO2. In day 2, 10 μL of growth medium containing 10-fold stock solution of testing compound was added into cell cultures (9 dose points with 3× serial dilution, starting with 30 μM, 0.3% DMSO final). After 72-hr incubation at 37° C. and 5% CO2, in day 5 a volume of 50 μL CellTiter Glo (CTG) reagent was added into cell-containing 96-well plate and the plate was incubated at room temperature for 10 minutes before RLUs (relative light unit) were measured on a microplate reader with luminescence detection module. The RLU value was normalized to survival % and concentration-response curve was plotted using Prism to calculate IC50 (M), pIC50 (−log IC50) and HillSlope value.

[4] = molecular target: T3, NIH/3T3 cells overexpressing FGFR3 WT-TACC3 fusion protein (Homo sapiens, UniProt P22607); assay: NIH/3T3 FGFR3 WT-TACC3 cell proliferation assay; type: cell-based; conditions: 72-hr incubation, CellTiter Glo, starting with 10 μM; read-out: NIH/3T3 FGFR3 WT-TACC3 CTG (IC50)
T3 construct: NIH/3T3 FGFR3 WT-TACC3 CTG (IC50); other: 72-hr incubation, CellTiter Glo, starting with 10 μM; fused on or other part: Q9Y6A5 (Transforming acidic coiled-coil-containing protein 3)
Method: NIH/3T3 FGFR3 WT-TACC3 Cell Proliferation Assay
as §2, with “cells overexpressing FGFR3 WT-TACC3 fusion protein)” for “cells transfected with the same control vector as in the above two proliferation assays)”, “with 4×” for “with 3×”, “with 10” for “with 30”, “μM, 0.1%” for “μM, 0.3%”

[5] = molecular target: T4, NIH/3T3 cells overexpressing FGFR3 V555M-TACC3 fusion protein (Homo sapiens, UniProt P22607, V555M, cells depend on it); assay: NIH/3T3 FGFR3 V555M-TACC3 cell proliferation assay; type: cell-based; conditions: 72-hr incubation, CellTiter Glo, starting with 10 μM; read-out: NIH/3T3 FGFR3 V555M-TACC3 CTG (IC50)
T4 construct: NIH/3T3 FGFR3 V555M-TACC3 CTG (IC50); other: 72-hr incubation, CellTiter Glo, starting with 10 μM; fused on or other part: Q9Y6A5 (Transforming acidic coiled-coil-containing protein 3)
Method: NIH/3T3 FGFR3 V555M-TACC3 Cell Proliferation Assay
as §2, with “cells overexpressing FGFR3 V555M-TACC3 fusion protein)” for “cells transfected with the same control vector as in the above two proliferation assays)”, “with 4×” for “with 3×”, “with 10” for “with 30”, “μM, 0.1%” for “μM, 0.3%”

T1 sequence (P22607 397-806 limits assumed): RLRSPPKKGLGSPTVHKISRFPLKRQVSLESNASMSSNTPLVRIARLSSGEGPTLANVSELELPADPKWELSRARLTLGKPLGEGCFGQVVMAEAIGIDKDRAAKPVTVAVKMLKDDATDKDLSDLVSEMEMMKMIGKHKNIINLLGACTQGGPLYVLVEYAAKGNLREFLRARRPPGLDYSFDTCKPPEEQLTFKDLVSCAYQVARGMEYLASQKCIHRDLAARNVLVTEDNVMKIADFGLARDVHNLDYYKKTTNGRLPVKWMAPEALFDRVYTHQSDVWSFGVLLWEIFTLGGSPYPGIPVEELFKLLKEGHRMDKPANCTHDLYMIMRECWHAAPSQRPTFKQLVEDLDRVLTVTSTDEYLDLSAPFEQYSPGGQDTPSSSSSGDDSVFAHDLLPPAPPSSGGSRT
T2 sequence (P22607 397-806 V555M limits assumed): as the sequence (P22607 397-806 limits assumed) above, with V159M counted along it
T3 sequence (P22607 whole entry, change not shown, the tested form may be a part): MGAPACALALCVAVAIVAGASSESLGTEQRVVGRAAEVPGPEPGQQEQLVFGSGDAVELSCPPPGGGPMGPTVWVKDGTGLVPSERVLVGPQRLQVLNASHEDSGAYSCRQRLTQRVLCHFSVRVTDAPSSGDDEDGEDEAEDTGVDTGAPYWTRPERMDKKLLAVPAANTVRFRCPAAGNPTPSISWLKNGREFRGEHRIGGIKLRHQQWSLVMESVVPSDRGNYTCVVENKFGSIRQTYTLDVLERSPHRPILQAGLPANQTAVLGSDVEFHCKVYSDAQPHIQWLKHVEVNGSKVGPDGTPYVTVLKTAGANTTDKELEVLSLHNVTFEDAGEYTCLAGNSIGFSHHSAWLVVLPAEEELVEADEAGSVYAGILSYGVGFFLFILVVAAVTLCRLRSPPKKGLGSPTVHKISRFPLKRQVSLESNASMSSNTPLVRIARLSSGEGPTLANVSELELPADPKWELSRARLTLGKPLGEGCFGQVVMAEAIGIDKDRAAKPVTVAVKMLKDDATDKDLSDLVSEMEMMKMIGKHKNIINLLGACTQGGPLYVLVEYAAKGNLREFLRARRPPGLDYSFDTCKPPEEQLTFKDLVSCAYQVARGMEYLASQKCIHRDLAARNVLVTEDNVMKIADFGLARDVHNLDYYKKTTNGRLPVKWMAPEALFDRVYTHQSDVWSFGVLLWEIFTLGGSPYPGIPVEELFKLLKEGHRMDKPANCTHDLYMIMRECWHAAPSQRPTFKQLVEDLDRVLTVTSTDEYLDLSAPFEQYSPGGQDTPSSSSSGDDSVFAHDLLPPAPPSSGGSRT
T4 sequence (P22607 whole entry V555M, the tested form may be a part): as the sequence (P22607 whole entry, change not shown, the tested form may be a part) above, with V555M counted along it

Row | SMILES | pIC50 [1] | pIC50 [2] | pIC50 [3] | GI50 [4] | GI50 [5]
1 | CC(Nc1c(-c2nc3cc(C(F)(F)F)c(N4CCN(C)CC4)cc3[nH]2)c(=O)[nH]c2ccccc12)c1ncccn1 (single isomer, unassigned) [Compound 25a, (S*)-3-(6-(4-methylpiperazin-1-yl)-5-(trifluoromethyl)-1H-benzo[d]imidazol-2-yl)-4-((1-(pyrimidin-2-yl)ethyl)amino)quinolin-2(1H)-one] | 8.91 | 8.99 | 5.65 | 5.16 nM | 4.82 nM
2 | CC(Nc1c(-c2nc3ccc(N4CCO[C@@H](C)C4)cc3[nH]2)c(=O)[nH]c2ccccc12)c1ncccn1 (single isomer, unassigned) [Compound 26a, 3-(6-((S)-2-methylmorpholino)-1H-benzo[d]imidazol-2-yl)-4-(((S*)-1-(pyrimidin-2-yl)-ethyl)amino)quinolin-2(1H)-one] | 9.50 | 9.75 | 5.59 | 2.22 nM | 4.3 nM
3 | CC(Nc1c(-c2nc3cc(F)c(N4CCOCC4)cc3[nH]2)c(=O)[nH]c2ccccc12)c1ncccn1 (single isomer, unassigned) [Compound 27a, (S*)-3-(5-fluoro-6-morpholino-1H-benzo[d]imidazol-2-yl)-4-((1-(pyrimidin-2-yl)-ethyl)amino)quinolin-2(1H)-one] | 9.35 | 9.59 | 5.41 | 6.93 nM | 5.8 nM
4 | C[C@H](Nc1c(-c2nc3ccc(N4CCCCC4)cc3[nH]2)c(=O)[nH]c2ccccc12)c1ncccn1 (single isomer, unassigned) [Compound 28a, (S*)-3-(6-(piperidin-1l-yl)-1H-benzo[d]imidazol-2-yl)-4-((1-(pyrimidin-2-yl)ethyl)-amino)quinolin-2(1H)-one] | 9.26 | 9.52 | 5.14 | 5.49 nM | 8.35 nM
5 | CC(Nc1c(-c2nc3ccc(C4CCOCC4)cc3[nH]2)c(=O)[nH]c2ccccc12)c1ncccn1 (single isomer, unassigned) [Compound 29a, (S*)-4-((1-(pyrimidin-2-yl)ethyl)amino)-3-(6-(tetrahydro-2H-pyran-4-yl)-1H-benzo[d]-imidazol-2-yl)quinolin-2(1H)-one] | 9.62 | 9.82 | 5.33 | 8.46 nM | 10.8 nM
6 | CCCC(Nc1c(-c2nc3ccc(N4CCOCC4)cc3[nH]2)c(=O)[nH]c2ccccc12)c1ncccn1 (single isomer, unassigned) [Compound 31a, (S*)-3-(6-morpholino-1H-benzo[d]imidazol-2-yl)-4-((1-(pyrimidin-2-yl)butyl)amino)quinolin-2(1H)-one] | 9.07 | 9.74 | 5.53 | 25.7 nM | 14.3 nM
7 | Cc1ccnc(C(C)Nc2c(-c3nc4ccc(N5CCOCC5)cc4[nH]3)c(=O)[nH]c3ccccc23)n1 (single isomer, unassigned) [Compound 34a, (S*)-4-((1-(4-methylpyrimidin-2-yl)ethyl)amino)-3-(6-morpholino-1H-benzo[d]imidazol-2-yl)quinolin-2(1H)-one] | 8.05 | 8.80 | 5.88 | 43.1 nM | 70.4 nM
8 | CC(Nc1c(-c2nc3ccc(N4CCOCC4)cc3[nH]2)c(=O)[nH]c2ccccc12)c1cnccn1 (single isomer, unassigned) [Compound 35b, (S*)-3-(6-morpholino-1H-benzo[d]imidazol-2-yl)-4-((1-(pyrazin-2-yl)ethyl)amino)-quinolin-2(1H)-one] | 7.96 | 8.54 | 5.77 | 127 nM | 197 nM
9 | CC(Nc1c(-c2nc3ccc(N4CCOCC4)cc3[nH]2)c(=O)[nH]c2ccccc12)c1ccn(C(C)C)n1 (single isomer, unassigned) [Compound 36b, (S*)-4-((1-(1-isopropyl-1H-pyrazol-3-yl)ethyl)amino)-3-(6-morpholino-1H-benzo[d]-imidazol-2-yl)quinolin-2(1H)-one] | 8.14 | 8.63 | 5.82 | 315 nM | 170 nM
10 | CC(Nc1c(-c2nc3ccc(N4C[C@@H](C)O[C@H](C)C4)cc3[nH]2)c(=O)[nH]c2ccccc12)c1ncccn1 (single isomer, unassigned) [Compound 37a, 3-(6-((2R,6R)-2,6-dimethylmorpholino)-1H-benzo[d]imidazol-2-yl)-4-(((S*)-1-(pyrimidin-2-yl)ethyl)amino)quinolin-2(1H)-one] | 9.32 | 9.49 | 6.05 | 11.7 nM | 4.18 nM
11 | CC(Nc1c(-c2nc3ccc(N4C[C@H](C)O[C@@H](C)C4)cc3[nH]2)c(=O)[nH]c2ccccc12)c1ncccn1 (single isomer, unassigned) [Compound 39a, 3-(6-((2S,6S)-2,6-dimethylmorpholino)-1H-benzo[d]imidazol-2-yl)-4-(((S*)-1-(pyrimidin-2-yl)ethyl)amino)quinolin-2(1H)-one] | 9.76 | 9.87 | 5.80 | 6.58 nM | 6.47 nM
12 | C[C@@H]1CN(c2ccc3nc(-c4c(N[C@@H](C)c5ncccn5)c5ccccc5[nH]c4=O)[nH]c3c2)CCO1 (single isomer, unassigned) [Compound 40a] | 9.50 | 9.78 | 5.61 | 3.15 nM | 1.85 nM

Reference: US11384075B2, “Quinolinone compounds” (Janssen Pharmaceutica NV, priority 2017, dated 2022)
